How the values were obtained:
[1] = target: T1, Monoglyceride lipase (Rattus norvegicus) (UniProt Q8R431); experiment: (§1) Inhibition of MGL in rat cerebellum cytosolic fractions assessed as [3H]2-oleoylglycerol hydrolysis; assay type: tissue-based
T1 sequence (whole entry): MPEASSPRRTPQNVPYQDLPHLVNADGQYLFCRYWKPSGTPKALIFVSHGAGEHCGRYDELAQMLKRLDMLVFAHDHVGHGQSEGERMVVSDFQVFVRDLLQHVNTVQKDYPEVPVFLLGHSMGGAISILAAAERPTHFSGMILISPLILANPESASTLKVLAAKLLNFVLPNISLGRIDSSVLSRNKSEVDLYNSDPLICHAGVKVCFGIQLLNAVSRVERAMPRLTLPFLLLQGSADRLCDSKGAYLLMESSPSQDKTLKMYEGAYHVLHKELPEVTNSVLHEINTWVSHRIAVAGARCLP

Monoglyceride lipase [2] = target: T2, Monoglyceride lipase (Rattus norvegicus, UniProt Q8R431); experiment: as §1; assay type: tissue-based
T2 sequence (Q8R431 whole entry): T1 sequence (whole entry)

[3] = target: T1, Monoglyceride lipase (Rattus norvegicus); experiment: (§2) Inhibition of MGL in rat cerebellum membrane fractions assessed as [3H]2-oleoylglycerol hydrolysis; assay type: cell membranes
[4] = target: T1, Monoglyceride lipase (Rattus norvegicus); experiment: Inhibition of MGL in rat cerebellum cytosolic fractions assessed as [3H]2-oleoylglycerol hydrolysis at 100 uM; assay type: tissue-based
[5] = target: T1, Monoglyceride lipase (Rattus norvegicus); experiment: Inhibition of MGL in rat cerebellum membrane fractions assessed as [3H]2-oleoylglycerol hydrolysis at 100 uM; assay type: cell membranes
[6] = target: T3, Fatty-acid amide hydrolase 1 (Rattus norvegicus) (UniProt P97612); experiment: (§3) Inhibition of FAAH in rat cerebellum membranes assessed as [3H]anandamide hydrolysis; assay type: cell membranes; details: Membrane
T3 sequence (whole entry): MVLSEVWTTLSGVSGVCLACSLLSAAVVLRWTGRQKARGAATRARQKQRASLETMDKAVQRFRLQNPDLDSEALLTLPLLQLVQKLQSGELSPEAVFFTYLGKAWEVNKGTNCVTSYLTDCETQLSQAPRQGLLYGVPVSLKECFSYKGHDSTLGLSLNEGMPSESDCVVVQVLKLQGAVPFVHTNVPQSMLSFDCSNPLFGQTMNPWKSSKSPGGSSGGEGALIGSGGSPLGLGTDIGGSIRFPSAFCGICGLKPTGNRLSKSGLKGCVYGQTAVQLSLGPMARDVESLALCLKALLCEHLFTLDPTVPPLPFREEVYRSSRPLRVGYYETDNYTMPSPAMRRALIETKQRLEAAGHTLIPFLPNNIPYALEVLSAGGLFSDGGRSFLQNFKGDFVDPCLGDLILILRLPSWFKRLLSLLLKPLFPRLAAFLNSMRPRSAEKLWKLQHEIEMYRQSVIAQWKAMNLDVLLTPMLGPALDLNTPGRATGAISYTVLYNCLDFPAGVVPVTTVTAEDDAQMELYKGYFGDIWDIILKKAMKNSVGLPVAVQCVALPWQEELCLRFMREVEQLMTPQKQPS

[7] = target: T4, Fatty-acid amide hydrolase 1 (Rattus norvegicus, UniProt P97612); experiment: as §3; assay type: cell membranes, Membrane
T4 sequence (P97612 whole entry): T3 sequence (whole entry)

Monoglyceride lipase [8] = target: T2, Monoglyceride lipase; experiment: as §2; assay type: cell membranes
[9] = target: T3, Fatty-acid amide hydrolase 1 (Rattus norvegicus); experiment: Inhibition of FAAH in rat cerebellum membranes assessed as [3H]anandamide hydrolysis at 100 uM; assay type: cell membranes; details: Membrane

SMILES | pI50 (-log I50, M) [1] | IC50 (Monoglyceride lipase [2]) | Log I50 [3] | inhibition [4] | inhibition [5] | pI50 (-log10 of IC50 in M) [6] | IC50 [7] | IC50 (Monoglyceride lipase [8]) | inhibition [9]
O=C(OCC1CCCCO1)c1ccccc1 (racemic) | 5.5 | 3 µM | < 4 | 53% | 24% | 4.28 | 53 µM |  | 
CCCCCCCC/C=C\CCCCCCCC(=O)OCC1CO1 (racemic) | < 4 |  | < 4 | 6% | 8% | 4.96 | 11 µM |  | 
O=C(OCC1CCCCO1)c1cccc(-c2ccccc2)c1 (racemic) | < 4 |  | < 4 | 36% | 49% | 4.75 | 18 µM |  | 
O=C(OCC1CCCCO1)c1ccc(-c2ccccc2)cc1 (racemic) | < 4 |  | 4.1 | 43% |  | 4.49 | 32 µM | 80 µM | 
CCCCC/C=C\C/C=C\C/C=C\C/C=C\CCCC(=O)OCC1COC(C)(C)O1 (racemic) | 4.3 | 45 µM | 4 |  |  | 4 | 98 µM | 95 µM | 
CCCCCCCC/C=C\CCCCCCCC(=O)OCC1CCCCO1 (racemic) | < 4 |  | < 4 | 12% | 35% | 4.53 | 29 µM |  | 
CCCCC/C=C\C/C=C\C/C=C\C/C=C\CCCC(=O)OC[C@H]1COC(C)(C)O1 | 4.22 | 60 µM | < 4 |  | 34% | 4.55 | 28 µM |  | 
CC/C=C\C/C=C\C/C=C\CCCCCCCC(=O)OCC1CCCCO1 (racemic) | 4.64 | 23 µM | < 4 |  | 33% | 4.73 | 19 µM |  | 
CCCCC/C=C\C/C=C\C/C=C\C/C=C\CCCC(=O)OCC1CO1 (racemic) |  |  | 4.72 |  |  |  | 12 µM | 19 µM | 
CCCCCC/C=C\CCCCCCCC(=O)OCC1CCCCO1 (racemic) | < 4 |  | < 4 | 42% | 36% | 5 | 10 µM |  | 82%
CCCCC/C=C\C/C=C\C/C=C\C/C=C\CCCC(=O)OCc1ccc2c(c1)OCO2 | 4.35 | 45 µM | < 4 |  | 3% | 4 | 91 µM |  | 
CCCCC/C=C\C/C=C\C/C=C\C/C=C\CCCC(=O)NC[C@@H]1CCCO1 | 5.5 | 3.5 µM | 4.1 | 59% |  | 4.16 | 69 µM | 70 µM | 
O=C(OCC1CO1)c1cccc(-c2ccccc2)c1 (racemic) | < 4 |  | < 4 | 40% | 19% | 4.22 | 61 µM |  | 
CCCCC/C=C\C/C=C\C/C=C\C/C=C\CCCC(=O)NC[C@H]1CCCO1 | 4.59 | 25 µM | 4.09 |  |  | 4.01 | 99 µM | 81 µM | 
CC/C=C\C/C=C\C/C=C\CCCCCCCC(=O)OCC1CO1 (racemic) | 4.97 | 11 µM | 4.3 |  |  | 5.8 | 1.6 µM | 50 µM | 
CCCCC/C=C\C/C=C\C/C=C\C/C=C\CCCC(=O)OCCC1OCC(C)(C)CO1 | 4.57 | 27 µM | 4 |  |  | 4.68 | 21 µM | 99 µM | 

SMILES | pI50 (-log I50, M) [1] | IC50 (Monoglyceride lipase [2]) | Log I50 [3] | inhibition [4] | inhibition [5] | pI50 (-log10 of IC50 in M) [6] | IC50 [7] | IC50 (Monoglyceride lipase [8]) | inhibition [9]
CCCCC/C=C\C/C=C\C/C=C\C/C=C\CCCC(=O)NCC1COC(C)(C)O1 (racemic) | 4.8 | 15 µM | < 4 | 71% | 45% | 4.05 | 90 µM |  | 
CCCCC/C=C\C/C=C\CCCCCCCC(=O)OCC1CO1 (racemic) |  |  |  |  | 18% |  |  |  | 
CCCCC/C=C\C/C=C\C/C=C\C/C=C\CCCC(=O)OC1CCOCC1 | 4.5 | 30 µM | < 4 | 62% | 33% | 5.3 | 5.3 µM |  | 63%
CCCCC/C=C\C/C=C\C/C=C\C/C=C\CCCC(=O)OC[C@@H]1CO1 | 5.1 | 8 µM | < 4 |  |  |  | 12 µM |  | 
CCCCC/C=C\C/C=C\C/C=C\C/C=C\CCCC(=O)OC[C@@H]1COC(C)(C)O1 | < 4 |  | < 4 | 46% | 38% | 4.76 | 17 µM |  | 
CCCCC/C=C\C/C=C\C/C=C\C/C=C\CCCC(=O)OCC1CCCCO1 (racemic) | 5.26 | 5.6 µM | 4.58 |  |  | 4.3 | 51 µM | 26 µM | 
O=C(OCC1CO1)c1ccccc1-c1ccccc1 (racemic) | < 4 |  | < 4 | 29% | 18% | < 4 |  |  | 5%
CCCCC/C=C\C/C=C\C/C=C\C/C=C\CCCC(=O)NCC1CCCO1 (stereo not drawn) | 4.47 | 34 µM | < 4 |  | 44% | 4.25 | 56 µM |  | 
CCCCC/C=C\C/C=C\C/C=C\C/C=C\CCCC(=O)OC[C@H]1CO1 | 5.2 | 6.3 µM | < 4 |  |  |  | 6 µM |  | 
O=C(OCC1CCCCO1)c1ccccc1-c1ccccc1 (racemic) | < 4 |  | < 4 | 38% | 47% | 4.37 | 43 µM |  | 
CCCCC/C=C\C/C=C\C/C=C\C/C=C\CCCC(=O)OCC1CCCO1 (stereo not drawn) | 4.67 | 21 µM | 4.1 |  |  | 4.48 | 33 µM | 75 µM | 
CCCCC/C=C\C/C=C\CCCCCCCC(=O)OCC1CCCCO1 (racemic) | 4.1 | 73 µM | < 4 |  | 38% | 5.13 | 7.5 µM |  | 
O=C(OCC1CO1)c1ccccc1 (racemic) | < 4 |  | < 4 | 14% | 0.2% | < 4 |  |  | 19%
CCCCCC/C=C\CCCCCCCC(=O)OCC1CO1 (racemic) | 4.87 | 13 µM | 4.55 | 84% |  | 5.09 | 8.2 µM | 28 µM | 
CCCCC/C=C\C/C=C\C/C=C\C/C=C\CCCC(=O)OCC1CCOC1 (stereo not drawn) | 4.37 | 43 µM | < 4 |  | 46% | 4.98 | 11 µM |  | 78%
O=C(OCC1CO1)c1ccc(-c2ccccc2)cc1 (racemic) | < 4 |  | < 4 | 43% | 9% | 4.45 | 35 µM |  | 

Reference: ChEMBL document CHEMBL1148794, “Structure-activity relationship of a series of inhibitors of monoacylglycerol hydrolysis--comparison with effects upon fatty acid amide hydrolase” (J Med Chem, 2007)
